Experimental data published in US9420793B2, “Antiparasitic compounds” (Avista Pharma Solutions, priority 2015, dated 2016).
“And” between values parts separate entries of the source, which are not always exact repeats. Equal values may be shown once. Read-outs that look alike come from different tables or passages of the source.

How the values were obtained:
I. scapularis = assay: In vitro tick contact assay, comparison with standards
Procedure: (§1) A solution of the test compounds was used to coat the inner wall of glass vials and to treat two filter papers. Once dried, one filter paper was placed in the cap of the vial and the other in the bottom of the vial. Each treated vial was infested with 10 ticks. Contact of the ticks with residues was induced by holding the vials in a controlled environment and assessment was performed at 12, 24 and 48 hours after application in comparison with untreated glass vials and solvent-treated glass vials. Compounds were tested in duplicate and two separate trials (n=4).

R. sanguineus = assay: as above
Procedure: as §1

Ctenocephalides felis [1] = assay: Ctenocephalides felis residual contact assay; settings: for Contact EC50: 48 h, fleas
Procedure: Ctenocephalides felis Residual Contact Assay
A solution of the test compounds, individually and in combination was dispensed onto a substrate placed into a glass vial. The treated surface was allowed to dry before infesting each vial with 10 adult Ctenocephalides felis. The treated vials were held in a controlled environment and assessment was performed at 6, 24 and 48 hours after application in comparison with untreated controls glass vials and solvent-treated glass vials. Compounds were tested in duplicate and two separate trials (n=4).

A. americanum = assay: In vitro tick contact assay, comparison with standards
Procedure: as §1

Ctenocephalides felis [2] = settings: for Ingestion EC50: fleas
Procedure: In Vitro Evaluation of Ingestion Activity Against Fleas (Ctenocephalides Felis)
For flea ingestion tests, an aliquot of each compound stock was added to organic bovine blood contained in an artificial feeding container, with a final DMSO concentration of 0.5%. Ten newly emerged unfed fleas, Ctenocephalides felis, from a laboratory colony, 0-7 days old, were aspirated into a chamber and exposed to the appropriate feeding container and held in a controlled environment at 35° C. Fleas were evaluated for % mortality at 24, 48, and 72 hours post infestation. Fleas showing normal movement and/or jumping ability were considered viable and those showing no movement after tapping the vials were scored as dead. The compound+blood mixture was replaced every 24 hours.

D. variabilis = assay: In vitro tick contact assay, comparison with standards
Procedure: as §1

Aedes aegypti = assay: In vitro evaluation of ingestion activity against mosquitoes; settings: at 20 hours, compound in bovine blood, read-out: concentration at which active, mosquito ingestion
Procedure: In Vitro Evaluation of Ingestion Activity Against Mosquitoes (Aedes aegypti)
A solution of test compounds is added to bovine blood contained in a feeding chamber to reach the desired final concentration. Blood spiked with DMSO is prepared to serve as control. Adult female mosquitoes are introduced at the bottom of the chamber and allowed to feed on blood mixtures containing DMSO or test compounds for 30 minutes. Fully engorged mosquitoes are sorted into clean chambers after the blood meal and monitored for survival over 3 days. Replicates containing 10 mosquitoes are performed with each test compound concentration and results calculated as % mortality at specific time points.

[3] = test system: Dirofilaria immitis microfilariae; assay: Dirofilaria immitis microfilariae motility assay; settings: 72 h, read-out: concentration at which active, microfilariae motility

`Cc1cc(C2=NOC(c3cc(Cl)cc(Cl)c3)(C(F)(F)F)C2)ccc1C(=O)NCC(=O)NCC(F)(F)F` (stereo not shown) [Fluralaner] was tested, and the “I. scapularis Contact EC50” value (I. scapularis; 24 h) was 6.4 ± 3.3 ppm, the “I. scapularis Contact EC50” value (I. scapularis; 48 h) was 1.3 ± 0.2 ppm and the “R. sanguineus Contact EC50” value (R. sanguineus; 24 h) was 37.1 ± 16.3 ppm. For the same compound, the “R. sanguineus Contact EC50” value (R. sanguineus; 48 h) was 9.8 ± 5.0 ppm, the “Contact EC50” value (Ctenocephalides felis [1]) was greater than 50 ppm and the “A. americanum Contact EC50” value (A. americanum; 48 h) was 20.4 ± 10.7 ppm. The “Ingestion EC50” value (Ctenocephalides felis [2]; 2 h) was 1.6 ± 0.7 ppm, the “Ingestion EC50” value (Ctenocephalides felis [2]; 24 h) was 0.06 ± 0.02 ppm and the “D. variabilis Contact EC50” value (D. variabilis; 24 h) was 18.4 ± 3.0 ppm. For the same compound, the “D. variabilis Contact EC50” value (D. variabilis; 48 h) was 4.9 ± 1.4 ppm.
In the case of `O=C(CC(F)(F)F)N1CC2(C1)OCc1cc(C3=NSC(c4cc(Cl)c(F)c(Cl)c4)(C(F)(F)F)C3)ccc12` (stereo not shown) [Compound 1, 1-[6-[5-(3,5-dichloro-4-fluoro-phenyl)-5-(trifluoromethyl)-4H-isothiazol-3-yl]spiro[1H-isobenzofuran-3,3′-azetidine]-1′-yl]-3,3,3-trifluoro-propan-1-one], the minimal effective concentration (Aedes aegypti) is reported as less than 1 µg/mL, the “I. scapularis Contact EC50” value (I. scapularis; 24 h) is reported as 2.0 ± 0.4 ppm and the “I. scapularis Contact EC50” value (I. scapularis; 48 h) is reported as 0.04 ± 0.02 ppm. The “R. sanguineus Contact EC50” value (R. sanguineus; 24 h) was 17.0 ± 3.8 ppm, the “R. sanguineus Contact EC50” value (R. sanguineus; 48 h) was 4.6 ± 3.0 ppm and the “Contact EC50” value (Ctenocephalides felis [1]) was 29.0 ± 0.3 ppm. For the same compound, the “flea potency by contact relative to commercially available standards” value (Ctenocephalides felis [1]; versus fluralaner, afoxolaner) was “superior potency by contact”, the “A. americanum Contact EC50” value (A. americanum; 24 h) was 13.5 ± 5.1 ppm and the “A. americanum Contact EC50” value (A. americanum; 48 h) was 2.7 ± 0.4 ppm. For the same compound, the minimal effective concentration [3] was less than 10 µM, the “Ingestion EC50” value (Ctenocephalides felis [2]; 2 h) was 2.6 ± 0.3 ppm and the “Ingestion EC50” value (Ctenocephalides felis [2]; 24 h) was 0.20 ± 0.10 ppm. The “flea potency by ingestion relative to commercially available standards” value (Ctenocephalides felis [2]; versus fluralaner, afoxolaner, (+/−)sarolaner) was “comparable potency by ingestion”, the “D. variabilis Contact EC50” value (D. variabilis; 24 h) was 12.2 ± 0.6 ppm and the “D. variabilis Contact EC50” value (D. variabilis; 48 h) was 5.0 ± 1.6 ppm.
`O=C(CNC(=O)c1ccc(C2=NOC(c3cc(Cl)cc(C(F)(F)F)c3)(C(F)(F)F)C2)c2ccccc12)NCC(F)(F)F` (stereo not shown) [Afoxolaner] was tested, and the “I. scapularis Contact EC50” value (I. scapularis; 24 h) was 17.8 ± 5.9 ppm, the “I. scapularis Contact EC50” value (I. scapularis; 48 h) was 5.31 ± 1.8 ppm and the “R. sanguineus Contact EC50” value (R. sanguineus; 24 h) was greater than 50 ppm. The “R. sanguineus Contact EC50” value (R. sanguineus; 48 h) was 20.2 ± 5.0 ppm, the “Contact EC50” value (Ctenocephalides felis [1]) was greater than 50 ppm and the “A. americanum Contact EC50” value (A. americanum; 24 h) was 31.6 ppm and > 50 ppm. The “A. americanum Contact EC50” value (A. americanum; 48 h) was 11.3 ± 2.3 ppm, the “Ingestion EC50” value (Ctenocephalides felis [2]; 2 h) was 6.0 ± 2.9 ppm and the “Ingestion EC50” value (Ctenocephalides felis [2]; 24 h) was 0.13 ± 0.05 ppm. The “D. variabilis Contact EC50” value (D. variabilis; 24 h) was greater than 50 ppm and the “D. variabilis Contact EC50” value (D. variabilis; 48 h) was 12.35 ± 0.5 ppm.
`N#CCC(=O)N1CC2(C1)OCc1cc(C3=NSC(c4cc(Cl)c(F)c(Cl)c4)(C(F)(F)F)C3)ccc12` (stereo not shown) [Compound 29, 3-[6-[5-(3,5-dichloro-4-fluoro-phenyl)-5-(trifluoromethyl)-4H-isothiazol-3-yl]spiro[1H-isobenzofuran-3,3′-azetidine]-1′-yl]-3-oxo-propanenitrile] showed a minimal effective concentration (Aedes aegypti) of less than 1 µg/mL and a minimal effective concentration [3] of less than 10 µM.
With `CS(=O)(=O)CC(=O)N1CC2(C1)OCc1cc(C3=NO[C@@](c4cc(Cl)c(F)c(Cl)c4)(C(F)(F)F)C3)ccc12` (racemic) [(+/−) Sarolaner, Sarolaner] the “R. sanguineus Contact EC50” value (R. sanguineus; 24 h) was 37.8 ± 12.2 ppm, the “R. sanguineus Contact EC50” value (R. sanguineus; 48 h) was 12.7 ± 0.1 ppm and the “Ingestion EC50” value (Ctenocephalides felis [2]; 24 h) was 1.23 ± 0.11 ppm.
For `CCNC(=O)N1CC2(C1)OCc1cc(C3=NSC(c4cc(Cl)c(F)c(Cl)c4)(C(F)(F)F)C3)ccc12` (stereo not shown) [Compound 16, 6-[5-(3,5-dichloro-4-fluoro-phenyl)-5-(trifluoromethyl)-4H-isothiazol-3-yl]-N-ethyl-spiro[1H-isobenzofuran-3,3′-azetidine]-1′-carboxamide], the minimal effective concentration (Aedes aegypti) was less than 1 µg/mL and the minimal effective concentration [3] was less than 10 µM.
